Reference: PubChem BioAssay AID1845215 (Molecular Pharmacology Branch, DTP, NCI, 2023)
Values joined by “and” are separate entries in the source; they are usually repeats but may differ in a detail not shown here. Equal values may be shown once. Active and inactive are the calls of the source. How the source made its calls: active means viability on the fitted dose curve at most 10% of control; inactive means the rest.

Test system: SW 1271 complex tumor spheroid viability
Experiment: Anticancer human tumor SW 1271 cell line growth inhibition;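 on IC50: spheroids exposed to agents for seven days before readout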;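 on viability, T/C: spheroids exposed to agents for seven days before readout; percent of DMSO vehicle control luminescence so 100% = vehicle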
Details: for viability, T/C: stronger effect = lower value
From the text: Multicellular complex tumor spheroid response to DNA repair inhibitors in combination with DNA-damaging drugs
This study explores the anticancer activities of DNA-damaging drugs and inhibitors of DNA damage repair, both as single agents and in combinations. Complex tumor spheroids comprised of malignant cells, endothelial cells and mesenchymal stem cells served as an in vitro model for human solid tumors. This model system incorporates physiologically relevant features and patient-derived or established malignant cell lines with clinically relevant genetic alterations from many tumor types. Twenty-six patient-derived or established malignant cell lines were evaluated representing sarcoma, melanoma, small cell lung cancer (SCLC), non-small cell lung cancer (NSCLC), as well as bladder, ovarian and pancreatic cancers. The concentration ranges selected for each drug and investigational agent were based upon clinically achievable concentrations if the clinical Cmax of the agent was known.
Compounds. The drugs and compounds olaparib (NSC753686), talazoparib (NSC767125), berzosertib (NSC777718), elimusertib (NSC800525), nedisertib (NSC802822), VX-984 (NSC792969), AZD-1390 (NSC803789), temozolomide (NSC362856), topotecan (NSC609699), trabectedin (NSC813783), staurosporine (NSC755774), and gemcitabine (NSC613327) were obtained from the National Cancer Institute (NCI) Developmental Therapeutics Program Chemical Repository. The FDA-approved anticancer drug set is available from the Developmental Therapeutics Program at https://dtp.cancer.gov/organization/dscb/obtaining/available_plates.htm. […] The stock solutions were prepared in dimethyl sulfoxide (DMSO, Sigma-Aldrich, St. Louis, MO, cat. D2650) at 400-fold the tested concentration and stored at -70 degrees C. Prior to their use, the stock solutions were diluted in fresh medium and the final DMSO concentration in the assay was 0.25% (v/v). All drugs and investigational agents were tested over a range starting from a high concentration at or near the clinical Cmax and decreasing in half-log increments. If the clinical Cmax for an agent had not been determined, the highest concentration tested was 10 microM.
Cell Lines. The patient-derived cancer cell (PDC) lines: 156681-154-R-J1-PDC, 283228-195-R-J1-PDC, 287954-098-R-J1-PDC, 292921-168-R-J2-PDC, 349418-098-R-PDC, 425362-245-T-J1-PDC, 556581-035-R-J1-PDC, and BL0293-F563-PDC were received from the NCI Patient-Derived Models Repository (PDMR, https://pdmr.cancer.gov). The established cell lines HS-SY-2 (RRID:CVCL_8719), MPNST, and SYO-1 (RRID:CVCL_7146) were obtained from the Sloan Kettering Institute. The alveolar soft parts sarcoma cell line ASPS-1 (RRID:CVCL_S738) was established at the NCI and grown from internal seed stocks. The following established cell lines were purchased from the American Type Culture Collection (ATCC, Manassas, VA): G-401 (ATCC, cat. CRL-1441, RRID:CVCL_0270), SW982 (ATCC, cat. HTB-93, RRID:CVCL_1734), VA-ES-BJ (ATCC, cat. CRL-2138, RRID:CVCL_1785), NCI-H719 (ATCC, cat. CRL-5837, RRID:CVCL_1582), NCI-H196 (ATCC, cat. CRL-5823, RRID:CVCL_1509), NCI-H841 (ATCC, cat. CRL-5845, RRID:CVCL_1595), NCI-H1618 (ATCC, cat. CRL-5879, RRID:CVCL_1480), NCI-H1876 (ATCC, cat. CRL-5902, RRID:CVCL_1503), DMS 114 (ATCC, cat. CRL-2066; RRID:CVCL_1174), NCI-H211 (ATCC, cat. CRL-5824; RRID:CVCL_1529), and SW 1271 (ATCC, cat. CRL-2177, RRID:CVCL_1716). The small cell lung cancer cell line COR-L88 was purchased from Sigma-Aldrich (cat. 92031917-1VL, RRID:CVCL_1141). The non-small cell lung cancer cell lines NCI-H226 (RRID:CVCL_1544) and NCI-H322M (RRID:CVCL_1557) were established at the NCI and grown from internal seed stocks. Pooled donor human umbilical vein endothelial cells (HUVEC, Lonza, cat. CC-2519) and human mesenchymal stem cells (hMSC, Lonza, cat. PT-2501) were purchased from Lonza (Walkersville, MD).
Cell Culture. All cells were maintained in an incubator at 37 degrees C and 5% CO2 with 95% humidity. […]

`CC(C)n1c(=O)n(C)c2cnc3cc(F)c(-c4ccc(OCCCN5CCCCC5)nc4)cc3c21` + CC[C@@]1(O)C(=O)OCc2c1cc1n(c2=O)Cc2cc3c(CN(C)C)c(O)ccc3nc2-1 was tested, and the IC50 (curve of first compound, second compound 0.003 µM) was < 31.6 nM, the IC50 (curve of first compound, second compound 0.00949 µM) was < 31.6 nM and the IC50 (curve of first compound, second compound 0.03 µM) was < 31.6 nM. The IC50 (curve of first compound, second compound 0.0949 µM) was < 31.6 nM, the IC50 (curve of first compound, second compound 0.3 µM) was < 31.6 nM and the viability, T/C (second compound 0.003 µM, first compound 0.0316 µM) was 28.2%. The viability, T/C (second compound 0.003 µM, first compound 0.1 µM) was 26.8%, the viability, T/C (second compound 0.003 µM, first compound 0.316 µM) was 25% and the viability, T/C (second compound 0.003 µM, first compound 1 µM) was 27.7%. It also gave a viability, T/C (second compound 0.003 µM, first compound 3.16 µM) of 19.3%, a viability, T/C (second compound 0.003 µM, first compound 10 µM) of 7.91% and a viability, T/C (second compound 0.00949 µM, first compound 0.0316 µM) of 15.9%. For the same compound, the viability, T/C (second compound 0.00949 µM, first compound 0.1 µM) was 17.9%, the viability, T/C (second compound 0.00949 µM, first compound 0.316 µM) was 14.5% and the viability, T/C (second compound 0.00949 µM, first compound 1 µM) was 12.2%. For the same compound, the viability, T/C (second compound 0.00949 µM, first compound 3.16 µM) was 11.3%, the viability, T/C (second compound 0.00949 µM, first compound 10 µM) was 5.27% and the viability, T/C (second compound 0.03 µM, first compound 0.0316 µM) was 20.4%. For the same compound, the viability, T/C (second compound 0.03 µM, first compound 0.1 µM) was 17.7%, the viability, T/C (second compound 0.03 µM, first compound 0.316 µM) was 16% and the viability, T/C (second compound 0.03 µM, first compound 1 µM) was 15.8%. It also gave a viability, T/C (second compound 0.03 µM, first compound 3.16 µM) of 8.12%, a viability, T/C (second compound 0.03 µM, first compound 10 µM) of 3.67% and a viability, T/C (second compound 0.0949 µM, first compound 0.0316 µM) of 23.9%. The viability, T/C (second compound 0.0949 µM, first compound 0.1 µM) was 24.6%, the viability, T/C (second compound 0.0949 µM, first compound 0.316 µM) was 23.2% and the viability, T/C (second compound 0.0949 µM, first compound 1 µM) was 19.8%. It also gave a viability, T/C (second compound 0.0949 µM, first compound 3.16 µM) of 7.87%, a viability, T/C (second compound 0.0949 µM, first compound 10 µM) of 3.44% and a viability, T/C (second compound 0.3 µM, first compound 0.0316 µM) of 14.6%. The viability, T/C (second compound 0.3 µM, first compound 0.1 µM) was 13.2%, the viability, T/C (second compound 0.3 µM, first compound 0.316 µM) was 16.4% and the viability, T/C (second compound 0.3 µM, first compound 1 µM) was 16.1%. For the same compound, the viability, T/C (second compound 0.3 µM, first compound 3.16 µM) was 7.25% and the viability, T/C (second compound 0.3 µM, first compound 10 µM) was 4.47%.

In the case of `CC(C)n1c(=O)n(C)c2cnc3cc(F)c(-c4ccc(OCCCN5CCCCC5)nc4)cc3c21`, the viability, T/C (compound 0.0316 µM) is reported as 94.1% and 98.9% and 79.6%, the outcome (compound 0.1 µM) is reported as “inactive” and the viability, T/C (compound 0.1 µM) is reported as 86.3% and 78.7%. The viability, T/C (compound 0.316 µM) was 92.8% and 94.3% and 72.7%, the viability, T/C (compound 1 µM) was 94.6% and 83.5% and 71.3% and the viability, T/C (compound 3.16 µM) was 86.3% and 70.8% and 59.2%. The viability, T/C (compound 10 µM) was 60.3% and 48.2% and 20.9% and the IC50 (curve of compound) was > 10000 nM and 9160 nM and 4080 nM.

In the case of `Cn1ncnc1[C@H]1c2n[nH]c(=O)c3cc(F)cc(c23)N[C@@H]1c1ccc(F)cc1` + Cn1nnc2c(C(N)=O)ncn2c1=O, the IC50 (curve of first compound, second compound 1 µM) is reported as 9.72 nM, the IC50 (curve of first compound, second compound 3.16 µM) is reported as < 9.49 nM and the IC50 (curve of first compound, second compound 10 µM) is reported as < 9.49 nM. The IC50 (curve of first compound, second compound 31.6 µM) was < 9.49 nM, the IC50 (curve of first compound, second compound 100 µM) was < 9.49 nM and the viability, T/C (second compound 1 µM, first compound 0.00949 µM) was 50.5%. It also gave a viability, T/C (second compound 1 µM, first compound 0.03 µM) of 28.1%, a viability, T/C (second compound 1 µM, first compound 0.0949 µM) of 23.4% and a viability, T/C (second compound 1 µM, first compound 0.3 µM) of 26.2%. The viability, T/C (second compound 1 µM, first compound 0.949 µM) was 25.8%, the viability, T/C (second compound 1 µM, first compound 3 µM) was 20.7% and the viability, T/C (second compound 3.16 µM, first compound 0.00949 µM) was 41.6%. For the same compound, the viability, T/C (second compound 3.16 µM, first compound 0.03 µM) was 25.2%, the viability, T/C (second compound 3.16 µM, first compound 0.0949 µM) was 29.2% and the viability, T/C (second compound 3.16 µM, first compound 0.3 µM) was 22.1%. The viability, T/C (second compound 3.16 µM, first compound 0.949 µM) was 28.2%, the viability, T/C (second compound 3.16 µM, first compound 3 µM) was 22% and the viability, T/C (second compound 10 µM, first compound 0.00949 µM) was 32.9%. The viability, T/C (second compound 10 µM, first compound 0.03 µM) was 25.5%, the viability, T/C (second compound 10 µM, first compound 0.0949 µM) was 25.6% and the viability, T/C (second compound 10 µM, first compound 0.3 µM) was 28.6%. For the same compound, the viability, T/C (second compound 10 µM, first compound 0.949 µM) was 29.5%, the viability, T/C (second compound 10 µM, first compound 3 µM) was 20.1% and the viability, T/C (second compound 31.6 µM, first compound 0.00949 µM) was 27.1%. The viability, T/C (second compound 31.6 µM, first compound 0.03 µM) was 27.1%, the viability, T/C (second compound 31.6 µM, first compound 0.0949 µM) was 29.3% and the viability, T/C (second compound 31.6 µM, first compound 0.3 µM) was 28.5%. It also gave a viability, T/C (second compound 31.6 µM, first compound 0.949 µM) of 30.5%, a viability, T/C (second compound 31.6 µM, first compound 3 µM) of 22% and a viability, T/C (second compound 100 µM, first compound 0.00949 µM) of 29.8%. It also gave a viability, T/C (second compound 100 µM, first compound 0.03 µM) of 29.9%, a viability, T/C (second compound 100 µM, first compound 0.0949 µM) of 32.1% and a viability, T/C (second compound 100 µM, first compound 0.3 µM) of 32.8%. The viability, T/C (second compound 100 µM, first compound 0.949 µM) was 28.7% and the viability, T/C (second compound 100 µM, first compound 3 µM) was 19.9%.

In the case of `Cc1cc(C)c(CNC(=O)c2cc(-c3ccc(CN4CCOCC4)cc3)cc3c2cnn3C2CCCC2)c(=O)[nH]1`, the viability, T/C (compound 0.0316 µM) is reported as 99.2% and 98.8% and 97.6%, the viability, T/C (compound 0.1 µM) is reported as 95.9% and 99.6% and 92.9% and the viability, T/C (compound 0.316 µM) is reported as 96.5% and 95.6% and 98.5%. For the same compound, the viability, T/C (compound 1 µM) was 94.5% and 91.5% and 91.4%, the viability, T/C (compound 3.16 µM) was 98.9% and 85.2% and 85.7% and the viability, T/C (compound 10 µM) was 85.4% and 73% and 66.3%. The IC50 (curve of compound) was > 10000 nM.

For `CC1COCCN1c1cc(-c2ccnn2C)c2ccnc(-c3ccn[nH]3)c2n1` (configuration not stated), the viability, T/C (compound 0.0316 µM) was 76.6% and 87.1% and 78.6%, the viability, T/C (compound 0.1 µM) was 50.5% and 44.6% and 58.8% and the viability, T/C (compound 0.316 µM) was 25.2% and 31.1% and 21.6%. The viability, T/C (compound 1 µM) was 4.08% and 5.26% and 4.1%, the viability, T/C (compound 3.16 µM) was 2.44% and 3.8% and 2.04% and the viability, T/C (compound 10 µM) was 2.18% and 3.01% and 1.85%. For the same compound, the IC50 (curve of compound) was 107 nM and 93.4 nM and 131 nM.
